Data taken from the NIST ThermoML archive (doi:10.1016/j.jct.2008.04.008).
Numbers after ± are expanded uncertainties.

Assay: mn = molality of the nth substance listed, in mol/kg
Conditions: Liquid; for speed of sound: Pulse-echo method

[Na+].[O-][Cl+3]([O-])([O-])[O-] [sodium perchlorate] + CO
Conditions | mass density, 283.15 K [kg/m3] | mass density, 288.15 K [kg/m3] | mass density, 293.15 K [kg/m3] | mass density, 298.15 K [kg/m3] | mass density, 303.15 K [kg/m3] | mass density, 308.15 K [kg/m3] | mass density, 313.15 K [kg/m3] | speed of sound, 298.15 K [m/s]
m1 = 0.06243 | 805.671 ± 0.29 | 800.986 ± 0.29 | 796.296 ± 0.3 | 791.593 ± 0.3 | 786.871 ± 0.31 | 782.134 ± 0.31 | 777.365 ± 0.32 | 1106.7 ± 0.91
m1 = 0.0815 | 807.203 ± 0.29 | 802.517 ± 0.29 | 797.826 ± 0.3 | 793.122 ± 0.3 | 788.409 ± 0.31 | 783.67 ± 0.31 | 778.903 ± 0.32 | 1107.7 ± 0.91
m1 = 0.1008 | 808.744 ± 0.29 | 804.058 ± 0.29 | 799.365 ± 0.3 | 794.669 ± 0.3 | 789.952 ± 0.31 | 785.213 ± 0.31 | 780.447 ± 0.32 | 1108.9 ± 0.91
m1 = 0.1221 | 810.429 ± 0.29 | 805.746 ± 0.29 | 801.058 ± 0.29 | 796.356 ± 0.3 | 791.635 ± 0.3 | 786.904 ± 0.31 | 782.14 ± 0.31 | 1110.1 ± 0.91
m1 = 0.1416 | 811.984 ± 0.28 | 807.3 ± 0.29 | 802.609 ± 0.29 | 797.903 ± 0.3 | 793.191 ± 0.3 | 788.455 ± 0.31 | 783.694 ± 0.31 | 1111.2 ± 0.91
m1 = 0.1625 | 813.649 ± 0.28 | 808.965 ± 0.29 | 804.274 ± 0.29 | 799.57 ± 0.3 | 794.858 ± 0.3 | 790.121 ± 0.31 | 785.36 ± 0.31 | 1112.4 ± 0.91
m1 = 0.2036 | 816.875 ± 0.28 | 812.189 ± 0.28 | 807.5 ± 0.29 | 802.798 ± 0.29 | 798.077 ± 0.3 | 793.334 ± 0.3 | 788.581 ± 0.31 | 1115.1 ± 0.92
m1 = 0.2459 | 820.175 ± 0.28 | 815.49 ± 0.28 | 810.8 ± 0.29 | 806.099 ± 0.29 | 801.382 ± 0.29 | 796.642 ± 0.3 | 791.885 ± 0.3 | 1117 ± 0.92
m1 = 0.2865 | 823.32 ± 0.27 | 818.628 ± 0.28 | 813.937 ± 0.28 | 809.237 ± 0.29 | 804.52 ± 0.29 | 799.783 ± 0.3 | 795.021 ± 0.3 | 1119 ± 0.92
m1 = 0.3276 | 826.533 ± 0.27 | 821.841 ± 0.28 | 817.143 ± 0.28 | 812.442 ± 0.28 | 807.725 ± 0.29 | 802.987 ± 0.29 | 798.225 ± 0.3 | 1121.3 ± 0.92
m1 = 0.3701 | 829.792 ± 0.27 | 825.099 ± 0.27 | 820.402 ± 0.28 | 815.691 ± 0.28 | 810.974 ± 0.29 | 806.236 ± 0.29 | 801.475 ± 0.29 | 1123.6 ± 0.92
m1 = 0.412 | 832.991 ± 0.27 | 828.296 ± 0.27 | 823.6 ± 0.27 | 818.891 ± 0.28 | 814.168 ± 0.28 | 809.417 ± 0.29 | 804.668 ± 0.29 | 1125.5 ± 0.92
